Experimental data from patent US12612380B2, “Non-lysosomal glucosylceramidase inhibitors and uses thereof” (ALECTOS THERAPEUTICS INC., priority 2019, dated 2026).
Like-named read-outs stand apart in the source and are kept apart here.

Key:
GBA2 [1] = molecular target: T1, GBA2 (Homo sapiens, UniProt Q9HCG7); test: Determination of IC50 values for inhibition of GBA2 in cell lysate; format: biochemical; design: host or cells: HEK293T (lentiviral transduction, puromycin selection); used as cellular homogenate
T1 sequence (Q9HCG7 1-927): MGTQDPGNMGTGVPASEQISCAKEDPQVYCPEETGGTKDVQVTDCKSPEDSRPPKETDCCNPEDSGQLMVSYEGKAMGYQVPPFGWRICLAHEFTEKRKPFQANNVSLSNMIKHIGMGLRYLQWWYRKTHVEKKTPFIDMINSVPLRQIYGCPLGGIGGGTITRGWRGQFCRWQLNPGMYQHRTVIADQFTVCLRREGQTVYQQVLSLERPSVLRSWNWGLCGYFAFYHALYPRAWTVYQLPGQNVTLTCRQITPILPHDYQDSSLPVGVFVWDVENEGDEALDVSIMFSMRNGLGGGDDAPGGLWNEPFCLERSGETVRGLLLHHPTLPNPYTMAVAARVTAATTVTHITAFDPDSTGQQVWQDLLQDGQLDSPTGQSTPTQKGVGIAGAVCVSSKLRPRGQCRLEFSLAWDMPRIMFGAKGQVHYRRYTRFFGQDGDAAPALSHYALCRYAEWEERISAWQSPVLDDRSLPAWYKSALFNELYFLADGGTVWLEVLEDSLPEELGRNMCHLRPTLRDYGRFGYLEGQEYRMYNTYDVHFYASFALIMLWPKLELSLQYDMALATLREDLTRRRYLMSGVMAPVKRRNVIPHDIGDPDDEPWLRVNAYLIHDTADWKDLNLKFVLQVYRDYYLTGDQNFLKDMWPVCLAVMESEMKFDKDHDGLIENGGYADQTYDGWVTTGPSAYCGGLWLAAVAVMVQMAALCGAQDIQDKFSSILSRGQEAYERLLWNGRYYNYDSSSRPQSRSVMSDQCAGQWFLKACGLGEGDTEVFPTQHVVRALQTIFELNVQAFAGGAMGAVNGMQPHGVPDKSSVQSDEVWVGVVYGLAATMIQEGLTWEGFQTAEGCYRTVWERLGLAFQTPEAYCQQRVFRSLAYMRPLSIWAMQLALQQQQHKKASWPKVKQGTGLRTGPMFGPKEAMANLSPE
In short: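 Fluorogenic 4-MU-β-glucoside (250 μM) turnover over 20 min at 37 °C, pH 5.5, measured after NaOH/glycine stop (ex 365, em 450 nm). Enzyme source: lysate (0.083 mg/mL) of lentivirally transduced GBA2-HEK293T, GCase blocked by 20 μM azaspiro-octanediol; compound preincubated 5 min; IC50 = 50% inhibition concentration.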

GBA2 [2] = molecular target: T1, GBA2; test: Binding specificity (selectivity) for GBA2 over other enzymes; format: biochemical; conditions: compared to a suitable reference compound, e.g. NB-DNJ (miglustat) or AMP-DNM
Excerpt: In some embodiments, one or more of the compounds according to the invention may specifically bind a GBA2. In alternative embodiments, one or more of the compounds according to the invention may specifically bind the active site of a GBA2. […] In alternative embodiments, one or more of the compounds according to the invention may specifically bind the human non-lysosomal glucosylceramidase (GBA2) over the human lysosomal glucosylceramidase (GCase) and/or the human cytosolic glucosylceramidase (GBA3). In alternative embodiments, one or more of the compounds according to the invention may specifically bind the human non-lysosomal glucosylceramidase (GBA2) over the human glucosylceramide synthase (GCS). In alternative embodiments, one or more of the compounds according to the invention may specifically bind the human non-lysosomal glucosylceramidase (GBA2) over an intestinal alpha-glucosidase, where the intestinal alpha-glucosidase may be a sucrase-isomaltase or a maltase-glucoamylase.

[3] = cellular homogenate of HEK293T cells overexpressing human GBA2, 250 μM 4-methylumbelliferone-β-D glucopyranoside, pH 5.5, 37° C., GCase inhibitor present, read-out: GBA2 IC50

Row | Compound | binding specificity (IC50 or Ki of other molecule / GBA2) (GBA2 [2]) | IC50 (GBA2 [1]; [3]) [nM] | IC50 (GBA2 [1]) [nM]
1 | CCCCOc1cc(F)c(CCN2C[C@H](O)[C@@H](O)[C@H](O)[C@H]2C)c(F)c1 [Example 59, (2R,3R,4R,5S)-1-(4-butoxy-2,6-difluorophenethyl)-2-methylpiperidine-3,4,5-triol] | enhanced binding specificity | – | < 100
2 | C[C@@H]1[C@@H](O)[C@H](O)[C@@H](O)CN1CCc1c(F)cc(OCC2CC2)cc1F [Example 60, (2R,3R,4R,5S)-1-(4-(cyclopropylmethoxy)-2,6-difluorophenethyl)-2-methylpiperidine-3,4,5-triol] | enhanced binding specificity | – | < 100
3 | C[C@@H]1[C@@H](O)[C@H](O)[C@@H](O)CN1CCc1cc2c(cc1F)OCO2 [Example 71, (2R,3R,4R,5S)-1-(2-(6-fluorobenzo[d][1,3]dioxol-5-yl)ethyl)-2-methylpiperidine-3,4,5-triol] | enhanced binding specificity | – | < 100
4 | C[C@@H]1[C@@H](O)[C@H](O)[C@@H](O)CN1CCc1ccc2c(c1)OCCO2 [Example 73, (2R,3R,4R,5S)-1-(2-(2,3-dihydrobenzo[b][1,4]dioxin-6-yl)ethyl)-2-methylpiperidine-3,4,5-triol] | enhanced binding specificity | – | < 100
5 | C[C@@H]1[C@@H](O)[C@H](O)[C@@H](O)CN1C[C@H]1CCCN(c2cccc(C(F)(F)F)n2)C1 [Example 139, (2R,3R,4R,5S)-2-methyl-1-(((R)-1-(6-(trifluoromethyl)pyridin-2-yl)piperidin-3-yl)methyl)piperidine-3,4,5-triol] | enhanced binding specificity | < 100 | –
6 | C[C@@H]1[C@@H](O)[C@H](O)[C@@H](O)CN1C[C@H]1CCCN(c2cnccc2C(F)(F)F)C1 [Example 140, (2R,3R,4R,5S)-2-methyl-1-(((R)-1-(4-(trifluoromethyl)pyridin-3-yl)piperidin-3-yl)methyl)piperidine-3,4,5-triol] | enhanced binding specificity | < 100 | –
7 | C[C@@H]1[C@@H](O)[C@H](O)[C@@H](O)CN1C[C@@H]1CCCN(c2ncccc2C(F)(F)F)C1 [Example 141, (2R,3R,4R,5S)-2-methyl-1-(((S)-1-(3-(trifluoromethyl)pyridin-2-yl)piperidin-3-yl)methyl)piperidine-3,4,5-triol] | enhanced binding specificity | < 100 | –
8 | C[C@@H]1[C@@H](O)[C@H](O)[C@@H](O)CN1C[C@@H]1CCCN(c2cnccc2C(F)(F)F)C1 [Example 142, (2R,3R,4R,5S)-2-methyl-1-(((S)-1-(4-(trifluoromethyl)pyridin-3-yl)piperidin-3-yl)methyl)piperidine-3,4,5-triol] | enhanced binding specificity | < 100 | –
9 | O[C@H]1[C@H](O)[C@@H](O)CN(C[C@H]2CC[C@H](C(F)(F)F)CC2)[C@@H]1CF [Example 147, (2S,3R,4R,5S)-2-(fluoromethyl)-1-(((1r,4S)-4-(trifluoromethyl)cyclohexyl)methyl)piperidine-3,4,5-triol] | enhanced binding specificity | < 100 | –

More lines, main results first:

Row | binding specificity (IC50 or Ki of other molecule / GBA2) (GBA2 [2]) | IC50 (GBA2 [1]; [3]) [nM] | Compound | IC50 (GBA2 [1]) [nM]
10 | enhanced binding specificity | < 100 | Cc1ccccc1N1CC[C@H](CN2C[C@H](O)[C@@H](O)[C@H](O)[C@H]2C)C1 [Example 114, (2R,3R,4R,5S)-2-methyl-1-(((R)-1-(o-tolyl)pyrrolidin-3-yl)methyl)piperidine-3,4,5-triol] | –
11 | enhanced binding specificity | < 100 | C[C@@H]1[C@@H](O)[C@H](O)[C@@H](O)CN1C[C@H]1CCN(c2ccccc2C(F)(F)F)C1 [Example 115, (2R,3R,4R,5S)-2-methyl-1-(((R)-1-(2-(trifluoromethyl)phenyl)pyrrolidin-3-yl)methyl)piperidine-3,4,5-triol] | –
12 | enhanced binding specificity | < 100 | C[C@@H]1[C@@H](O)[C@H](O)[C@@H](O)CN1C[C@H]1CCN(c2ccccc2F)C1 [Example 116, (2R,3R,4R,5S)-1-(((R)-1-(2-fluorophenyl)pyrrolidin-3-yl)methyl)-2-methylpiperidine-3,4,5-triol] | –
13 | enhanced binding specificity | < 100 | C[C@@H]1[C@@H](O)[C@H](O)[C@@H](O)CN1C[C@H]1CCN(c2cccc(F)c2)C1 [Example 117, (2R,3R,4R,5S)-1-(((R)-1-(3-fluorophenyl)pyrrolidin-3-yl)methyl)-2-methylpiperidine-3,4,5-triol] | –
14 | enhanced binding specificity | < 100 | C[C@@H]1[C@@H](O)[C@H](O)[C@@H](O)CN1C[C@H]1CCN(c2ccccc2OC(F)(F)F)C1 [Example 118, (2R,3R,4R,5S)-2-methyl-1-(((R)-1-(2-(trifluoromethoxy)phenyl)pyrrolidin-3-yl)methyl)piperidine-3,4,5-triol] | –
15 | enhanced binding specificity | < 100 | C[C@@H]1[C@@H](O)[C@H](O)[C@@H](O)CN1C[C@H]1CCN(c2cccc(C(F)(F)F)n2)C1 [Example 119, (2R,3R,4R,5S)-2-methyl-1-(((R)-1-(6-(trifluoromethyl)pyridin-2-yl)pyrrolidin-3-yl)methyl)piperidine-3,4,5-triol] | –
16 | enhanced binding specificity | < 100 | C[C@@H]1[C@@H](O)[C@H](O)[C@@H](O)CN1C[C@H]1CCN(c2ncccc2C(F)(F)F)C1 [Example 120, (2R,3R,4R,5S)-2-methyl-1-(((R)-1-(3-(trifluoromethyl)pyridin-2-yl)pyrrolidin-3-yl)methyl)piperidine-3,4,5-triol] | –
17 | enhanced binding specificity | < 100 | C[C@@H]1[C@@H](O)[C@H](O)[C@@H](O)CN1C[C@H]1CCN(c2cccc3scnc23)C1 [Example 129, (2R,3R,4R,5S)-1-(((R)-1-(benzo[d]thiazol-4-yl)pyrrolidin-3-yl)methyl)-2-methylpiperidine-3,4,5-triol] | –
18 | enhanced binding specificity | < 100 | C[C@@H]1[C@@H](O)[C@H](O)[C@@H](O)CN1C[C@@H]1CCN(c2ccccc2C(F)(F)F)C1 [Example 131, (2R,3R,4R,5S)-2-methyl-1-(((S)-1-(2-(trifluoromethyl)phenyl)pyrrolidin-3-yl)methyl)piperidine-3,4,5-triol] | –
19 | enhanced binding specificity | < 100 | Cc1ccccc1N1CCC[C@H](CN2C[C@H](O)[C@@H](O)[C@H](O)[C@H]2C)C1 [Example 136, (2R,3R,4R,5S)-2-methyl-1-(((R)-1-(o-tolyl)piperidin-3-yl)methyl)piperidine-3,4,5-triol] | –
20 | enhanced binding specificity | < 100 | C[C@@H]1[C@@H](O)[C@H](O)[C@@H](O)CN1C[C@H]1CCCN(c2ccccc2F)C1 [Example 137, (2R,3R,4R,5S)-1-(((R)-1-(2-fluorophenyl)piperidin-3-yl)methyl)-2-methylpiperidine-3,4,5-triol] | –
21 | enhanced binding specificity | < 100 | C[C@@H]1[C@@H](O)[C@H](O)[C@@H](O)CN1C[C@H]1CCCN(c2ncccc2C(F)(F)F)C1 [Example 138, (2R,3R,4R,5S)-2-methyl-1-(((R)-1-(3-(trifluoromethyl)pyridin-2-yl)piperidin-3-yl)methyl)piperidine-3,4,5-triol] | –
